Tested on: 922993-354-T-J3-PDC complex spheroids, viability, % test/control
Test: Anticancer human tumor 922993-354-T-J3-PDC patient-derived endometrial carcinoma cell line growth inhibition [CLK]
Conditions: for IC50: curve of first compound; for viability, T/C: stronger effect = lower value; active means viability on the fitted dose curve at most 10% of control; inactive means the rest
Source text: A high-throughput screen of multi-cell type tumor spheroids was designed to identify active combinations of […] and targeted small molecules. Complex spheroids include a stromal component modeled by human endothelial cells (HUVEC) and fibroblasts modeled by human mesenchymal stem cells (MSCs). The concentration ranges selected for each drug and investigational agent were based upon clinically achievable concentrations if the clinical Cmax of the agent was known.
Compounds. The drugs and investigational agents: cirtuvivint (SM08502; NSC835563), CC-671 (NSC850746), vemurafenib (NSC761431), tapotoclax (NSC804041), sotorasib (NSC818433), adagrasib (NSC831453), MRTX-1133 (NSC836407), BAY2416964 (NSC825713), copanlisib (NSC816437), inavolisib (NSC800729), abemaciclib (NSC768073), osimertinib (NSC779217), entinostat (NSC756642), eltanexor (KPT-8602, NSC794443), venetoclax (NSC766270), ceralasertib (NSC777638), bortezomib (NSC756655), olaparib (NSC753686), talazoparib (NSC767125), alisertib (NSC759677), peposertib (NSC802822), gemcitabine (NSC613327), 5-fluorouracil (NSC19893), SN-38 (NSC673596), oxaliplatin (NSC266046), paclitaxel (NSC125973), and doxorubicin (NSC123127), were obtained from the National Cancer Institute (NCI) Developmental Therapeutics Program Chemical Repository. The FDA-approved anticancer drug set is available from the Developmental Therapeutics Program at https://dtp.cancer.gov/organization/dscb/obtaining/available plates.htm. […] The stock solutions were prepared in dimethyl sulfoxide (DMSO, Sigma-Aldrich, St. Louis, MO, cat. D2650), except for the platinum complexes which were prepared in saline (Quality Biological, Gaithersburg, MD, cat. 114-055-101), at 800-fold the tested concentration and stored at -70 degrees C prior to their use. All drugs and investigational agents were tested over a range starting from a high concentration at or near the clinical Cmax and decreasing in half-log increments. If the clinical Cmax for an agent had not been determined, the highest concentration tested was 10 microM.
Cell Culture. All cells were maintained in an incubator at 37 degrees C and 5% CO2 with 95% humidity. The PDC lines were cultured according to standard operating procedures established by the NCI PDMR. Briefly, all PDCs were thawed and cultured in Matrigel-coated flasks prepared with a working solution of 1X Ham's F-12 nutrient mix, without supplementation (Invitrogen, Waltham, MA, cat. 11765054), 100 U/mL penicillin-streptomycin (Invitrogen, cat. 15140122), and 2.5% Matrigel (Corning Inc., Corning, NY, cat. 354248) for the first three passages. The 947758-054-R-J2-PDC line was cultured in 6B/Colon 1A media, which includes advanced DMEM/F-12 (Thermo Fisher Scientific, cat. 12634028), 10 mM HEPES (Thermo Fisher Scientific, cat. 15630080), 1X GlutaMAX supplement (Thermo Fisher Scientific, cat. 35050061), 0.1 mg/mL primocin (InvivoGen, cat. ant-pm-2), 10% defined fetal bovine serum, heat inactivated (HyClone Laboratories Inc., cat. SH30070.03HI), 1.25 mM N-Acetyl-L-cysteine (Sigma-Aldrich, cat. A9165), 10 mM nicotinamide (Sigma-Aldrich, cat. N0636), 1X B-27 supplement (Thermo Fisher Scientific, cat. 17504044), 1X N-2 supplement (Thermo Fisher Scientific, cat. 17502048), and 10 microM Y-27632 dihydrochloride (Tocris Bioscience, cat. 1254). The 876862-298-R-J1-PDC was cultured in 6E media, which includes all 6B/Colon 1A media components plus 50% L-WRN conditioned media (ATCC, cat. CRL-3276), 50 ng/mL recombinant human EGF recombinant protein (hEGF; Thermo Fisher Scientific, cat. PHG0311), 10 ng/mL recombinant human fibroblast growth factor 10 (hGFG-10; PeproTech, cat. 100-26), 1 ng/mL recombinant human fibroblast growth factor 2 (hFGF-2; PeproTech, cat. 100-18B), and 1 µM prostaglandin E2 (PGE2; Tocris, cat. 2296). The 227483-062-R1-J1-PDC line was cultured in Panc media, containing all 6E components except hFGF-2, with the addition of 500 nM SB-431542 (Selleckchem, cat. S1067) and 10 nM gastrin (Tocris, cat. 3006). […]

[1] = second compound 0.0316 µM, first compound 0.0316 µM
[2] = second compound 0.0316 µM, first compound 0.1 µM
[3] = second compound 0.0316 µM, first compound 0.316 µM
[4] = second compound 0.0316 µM, first compound 1 µM
[5] = second compound 0.0316 µM, first compound 3.16 µM
[6] = second compound 0.0316 µM, first compound 10 µM
[7] = second compound 0.1 µM, first compound 0.0316 µM
[8] = second compound 0.1 µM, first compound 0.1 µM
[9] = second compound 0.1 µM, first compound 0.316 µM
[10] = second compound 0.1 µM, first compound 1 µM
[11] = second compound 0.1 µM, first compound 3.16 µM
[12] = second compound 0.1 µM, first compound 10 µM
[13] = second compound 0.316 µM, first compound 0.0316 µM
[14] = second compound 0.316 µM, first compound 0.1 µM
[15] = second compound 0.316 µM, first compound 0.316 µM
[16] = second compound 0.316 µM, first compound 1 µM
[17] = second compound 0.316 µM, first compound 3.16 µM
[18] = second compound 0.316 µM, first compound 10 µM
[19] = second compound 1 µM, first compound 0.0316 µM
[20] = second compound 1 µM, first compound 0.1 µM
[21] = second compound 1 µM, first compound 0.316 µM
[22] = second compound 1 µM, first compound 1 µM
[23] = second compound 1 µM, first compound 3.16 µM
[24] = second compound 1 µM, first compound 10 µM
[25] = second compound 3.16 µM, first compound 0.0316 µM
[26] = second compound 3.16 µM, first compound 0.1 µM
[27] = second compound 3.16 µM, first compound 0.316 µM
[28] = second compound 3.16 µM, first compound 1 µM
[29] = second compound 3.16 µM, first compound 3.16 µM
[30] = second compound 3.16 µM, first compound 10 µM
[31] = second compound 10 µM, first compound 0.0316 µM
[32] = second compound 10 µM, first compound 0.1 µM
[33] = second compound 10 µM, first compound 0.316 µM
[34] = second compound 10 µM, first compound 1 µM
[35] = second compound 10 µM, first compound 3.16 µM
[36] = second compound 10 µM, first compound 10 µM
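Further: spheroids exposed to the agents for 7 days before readout.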

CCCS(=O)(=O)Nc1ccc(F)c(C(=O)c2c[nH]c3ncc(-c4ccc(Cl)cc4)cc23)c1F + CN1CCN(c2cc(C(=O)Nc3cc4cc(-c5cnn(C)c5)ccc4cn3)ccn2)CC1
inactive: viability, T/C [1] 95.3% | viability, T/C [2] 113% | viability, T/C [3] 118% | viability, T/C [4] 97.9% | viability, T/C [5] 96.6% | viability, T/C [6] 65.3% | viability, T/C [7] 107% | viability, T/C [8] 90.5% | viability, T/C [9] 91.5% | viability, T/C [10] 87.6% | viability, T/C [11] 86.2% | viability, T/C [12] 46.7% | viability, T/C [13] 46.6% | viability, T/C [14] 40.4% | viability, T/C [15] 43.4% | viability, T/C [16] 43.9% | viability, T/C [17] 44.6% | viability, T/C [18] 26.7%
< 31.6 nM: IC50 (second compound 0.316 µM) | IC50 (second compound 1 µM) | IC50 (second compound 3.16 µM) | IC50 (second compound 10 µM)
> 10000 nM: IC50 (second compound 0.0316 µM)
active: viability, T/C [19] 0.14% | viability, T/C [20] 0.16% | viability, T/C [21] 0.15% | viability, T/C [22] 0.15% | viability, T/C [23] 1.71% | viability, T/C [24] 1.78% | viability, T/C [25] 0.09% | viability, T/C [26] 0.13% | viability, T/C [27] 0.82% | viability, T/C [28] 0.14% | viability, T/C [29] 2.22% | viability, T/C [30] 1.32% | viability, T/C [31] 0.18% | viability, T/C [32] 0.16% | viability, T/C [33] 1.26% | viability, T/C [34] 0.19% | viability, T/C [35] 1.53% | viability, T/C [36] 0.25%
9220 nM: IC50 (second compound 0.1 µM)

COC1C=CCC(C)C(C)S(=O)(=O)NC(=O)c2ccc3c(c2)N(CC2CCC21)CC1(CCCc2cc(Cl)ccc21)CO3 (centres undefined) + CN1CCN(c2cc(C(=O)Nc3cc4cc(-c5cnn(C)c5)ccc4cn3)ccn2)CC1
< 31.6 nM: IC50 (second compound 0.316 µM) | IC50 (second compound 1 µM) | IC50 (second compound 3.16 µM) | IC50 (second compound 10 µM)
3790 nM: IC50 (second compound 0.1 µM)
5390 nM: IC50 (second compound 0.0316 µM)
inactive: viability, T/C [1] 111% | viability, T/C [2] 107% | viability, T/C [3] 85.1% | viability, T/C [4] 91.4% | viability, T/C [5] 84.9% | viability, T/C [6] 13.6% | viability, T/C [7] 122% | viability, T/C [8] 99.7% | viability, T/C [9] 85.6% | viability, T/C [10] 90.1% | viability, T/C [11] 60.6% | viability, T/C [12] 10.8% | viability, T/C [13] 42.2% | viability, T/C [14] 48% | viability, T/C [15] 31.7% | viability, T/C [16] 21.1% | viability, T/C [17] 13.6%
active: viability, T/C [18] 7.1% | viability, T/C [19] 0.12% | viability, T/C [20] 0.13% | viability, T/C [21] 0.15% | viability, T/C [22] 0.22% | viability, T/C [23] 0.1% | viability, T/C [24] 0.79% | viability, T/C [25] 0.11% | viability, T/C [26] 0.17% | viability, T/C [27] 1.93% | viability, T/C [28] 0.13% | viability, T/C [29] 2.55% | viability, T/C [30] 0.89% | viability, T/C [31] 0.15% | viability, T/C [32] 1.42% | viability, T/C [33] 1.53% | viability, T/C [34] 0.22% | viability, T/C [35] 0.8% | viability, T/C [36] 2.41%
